From ChEMBL document CHEMBL4265942, “Four new antitumor metabolites isolated from a mutant 3-f-31 strain derived from Penicillium purpurogenum G59” (Eur J Med Chem, 2018)
Structures can show the parent of a compound that is named as a salt.

Columns and labels:
[1] = system: L929; assay: Cytotoxicity against mouse L929 cells assessed as inhibition of cell growth after 72 hrs by MTT assay; assay type: cell-based; conditions: L929, 72 h
[2] = system: A549; assay: Antiproliferative activity against human A549 cells assessed as inhibition of cell growth after 72 hrs by sulforhodamine B assay; assay type: functional, cell-based; conditions: A549, 72 h
[3] = system: HeLa; assay: Antiproliferative activity against human HeLa cells assessed as inhibition of cell growth after 72 hrs by sulforhodamine B assay; assay type: functional, cell-based
[4] = system: MCF7; assay: Antiproliferative activity against human MCF7 cells assessed as inhibition of cell growth after 72 hrs by sulforhodamine B assay; assay type: functional, cell-based; conditions: MCF7, 72 h
[5] = system: HCT-116; assay: Antiproliferative activity against human HCT116 cells assessed as inhibition of cell growth after 72 hrs by sulforhodamine B assay; assay type: functional, cell-based; conditions: HCT-116, 72 h
[6] = system: HepG2; assay: Antiproliferative activity against human HepG2 cells assessed as inhibition of cell growth after 72 hrs by sulforhodamine B assay; assay type: functional, cell-based; conditions: HepG2, 72 h
[7] = system: NCI-H1975; assay: Antiproliferative activity against human NCI-H1975 cells assessed as inhibition of cell growth after 72 hrs by sulforhodamine B assay; assay type: functional, cell-based; conditions: NCI-H1975, 72 h
[8] = system: HL-60; assay: Antiproliferative activity against human HL60 cells assessed as inhibition of cell growth after 72 hrs by MTT assay; assay type: functional, cell-based; conditions: HL-60, 72 h
[9] = system: K562; assay: Antiproliferative activity against human K562 cells assessed as inhibition of cell growth after 72 hrs by MTT assay; assay type: functional, cell-based; conditions: K562, 72 h
[10] = system: LS180; assay: Antiproliferative activity against human LS180 cells assessed as inhibition of cell growth after 72 hrs by sulforhodamine B assay; assay type: functional, cell-based; conditions: LS180, 72 h
[11] = system: SW480; assay: Antiproliferative activity against human SW480 cells assessed as inhibition of cell growth after 72 hrs by sulforhodamine B assay; assay type: functional, cell-based; conditions: SW480, 72 h
[12] = system: HT-29; assay: Antiproliferative activity against human HT-29 cells assessed as inhibition of cell growth after 72 hrs by sulforhodamine B assay; assay type: functional, cell-based; conditions: HT-29, 72 h
[13] = system: PC-3; assay: Antiproliferative activity against human PC3 cells assessed as inhibition of cell growth after 72 hrs by sulforhodamine B assay; assay type: functional, cell-based; conditions: PC-3, 72 h
[14] = system: BXPC-3; assay: Antiproliferative activity against human BxPC3 cells assessed as inhibition of cell growth after 72 hrs by sulforhodamine B assay; assay type: functional, cell-based; conditions: BXPC-3, 72 h
[15] = system: PANC-1; assay: Antiproliferative activity against human PANC1 cells assessed as inhibition of cell growth after 72 hrs by sulforhodamine B assay; assay type: functional, cell-based; conditions: PANC-1, 72 h
[16] = system: A549; assay: Antiproliferative activity against human A549 cells assessed as inhibition of cell growth at 1 uM after 72 hrs by sulforhodamine B assay relative to control; assay type: functional; conditions: A549, 72 h
[17] = system: HeLa; assay: Antiproliferative activity against human HeLa cells assessed as inhibition of cell growth at 1 uM after 72 hrs by sulforhodamine B assay relative to control; assay type: functional
[18] = system: MCF7; assay: Antiproliferative activity against human MCF7 cells assessed as inhibition of cell growth at 1 uM after 72 hrs by sulforhodamine B assay relative to control; assay type: functional; conditions: MCF7, 72 h
[19] = system: HCT-116; assay: Antiproliferative activity against human HCT116 cells assessed as inhibition of cell growth at 1 uM after 72 hrs by sulforhodamine B assay relative to control; assay type: functional; conditions: HCT-116, 72 h
[20] = system: HepG2; assay: Antiproliferative activity against human HepG2 cells assessed as inhibition of cell growth at 1 uM after 72 hrs by sulforhodamine B assay relative to control; assay type: functional; conditions: HepG2, 72 h
[21] = system: NCI-H1975; assay: Antiproliferative activity against human NCI-H1975 cells assessed as inhibition of cell growth at 1 uM after 72 hrs by sulforhodamine B assay relative to control; assay type: functional; conditions: NCI-H1975, 72 h
[22] = system: HL-60; assay: Antiproliferative activity against human HL60 cells assessed as inhibition of cell growth at 1 uM after 72 hrs by MTT assay relative to control; assay type: functional; conditions: HL-60, 72 h
[23] = system: K562; assay: Antiproliferative activity against human K562 cells assessed as inhibition of cell growth at 1 uM after 72 hrs by MTT assay relative to control; assay type: functional; conditions: K562, 72 h
[24] = system: LS180; assay: Antiproliferative activity against human LS180 cells assessed as inhibition of cell growth at 1 uM after 72 hrs by sulforhodamine B assay relative to control; assay type: functional; conditions: LS180, 72 h
[25] = system: SW480; assay: Antiproliferative activity against human SW480 cells assessed as inhibition of cell growth at 1 uM after 72 hrs by sulforhodamine B assay relative to control; assay type: functional; conditions: SW480, 72 h
[26] = system: HT-29; assay: Antiproliferative activity against human HT-29 cells assessed as inhibition of cell growth at 1 uM after 72 hrs by sulforhodamine B assay relative to control; assay type: functional; conditions: HT-29, 72 h
[27] = system: PC-3; assay: Antiproliferative activity against human PC3 cells assessed as inhibition of cell growth at 1 uM after 72 hrs by sulforhodamine B assay relative to control; assay type: functional; conditions: PC-3, 72 h
[28] = system: BXPC-3; assay: Antiproliferative activity against human BxPC3 cells assessed as inhibition of cell growth at 1 uM after 72 hrs by sulforhodamine B assay relative to control; assay type: functional; conditions: BXPC-3, 72 h
[29] = system: PANC-1; assay: Antiproliferative activity against human PANC1 cells assessed as inhibition of cell growth at 1 uM after 72 hrs by sulforhodamine B assay relative to control; assay type: functional; conditions: PANC-1, 72 h
[30] = system: HCT-116; assay: Antitumor activity against human HCT116 cells xenografted in BALB/c nu/nu mouse assessed as tumor growth inhibition at 5 mg/kg, iv administered every other day for 14 days measured 24 hrs post last dose relative to control; assay type: functional; conditions: HCT-116, iv, read-out: TGI
[31] = system: Mus musculus; assay: Toxicity in BALB/c nu/nu mouse xenografted with human HCT116 cells assessed as spleen index at 5 mg/kg, iv administered every other day for 14 days measured 24 hrs post last dose (reference value: 0.41 +/- 0.08%); assay type: organism-based; conditions: in vivo

IC50 [2] [µM] | IC50 [3] [µM] | IC50 [4] [µM] | IC50 [5] [µM] | IC50 [6] [µM] | IC50 [7] [µM] | IC50 [8] [µM] | IC50 [9] [µM] | IC50 [11] [µM] | IC50 [12] [µM] | IC50 [13] [µM] | IC50 [14] [µM] | IC50 [15] [µM] | SMILES | IC50 [1] [µM] | IC50 [10] [µM] | also measured
14.8 | 8.65 | 4.06 | 2.61 | 9.58 | 4.77 | 10.8 | 6.46 | 3.85 | 9.85 | 6.33 | 10.5 | 5.77 | CCCCCC[C@@H](C)C[C@@H](C)/C=C/C(=O)N[C@H]1C[C@@]2(O[C@@H]1OC)[C@@H]1O[C@@H]1[C@](O)(CC(C)=O)[C@@H]1O[C@@H]12 | 3.69 | 13.9 | 
 |  |  |  |  |  |  |  |  |  |  |  |  | COc1cccc2c1C(=O)c1c(O)c3c(c(O)c1C2=O)C[C@@](O)(C(=O)CO)C[C@@H]3O[C@H]1C[C@H](N)[C@H](O)[C@H](C)O1 [DOXORUBICIN HYDROCHLORIDE] |  |  | inhibition at 1 µM [16]: 70 to 98%; inhibition at 1 µM [17]: 70 to 98%; inhibition at 1 µM [18]: 70 to 98%; inhibition at 1 µM [19]: 70 to 98%; inhibition at 1 µM [20]: 70 to 98%; inhibition at 1 µM [21]: 70 to 98%; inhibition at 1 µM [22]: 70 to 98%; inhibition at 1 µM [23]: 70 to 98%; inhibition at 1 µM [24]: 70 to 98%; inhibition at 1 µM [25]: 70 to 98%; inhibition at 1 µM [26]: 70 to 98%; inhibition at 1 µM [27]: 70 to 98%; inhibition at 1 µM [28]: 70 to 98%; inhibition at 1 µM [29]: 70 to 98%
 |  |  |  |  |  |  |  |  |  |  |  |  | CC(=O)O[C@@]12CO[C@@H]1C[C@H](O)[C@@]1(C)C(=O)[C@H](O)C3=C(C)[C@@H](OC(=O)[C@H](O)[C@@H](NC(=O)OC(C)(C)C)c4ccccc4)C[C@@](O)([C@@H](OC(=O)c4ccccc4)[C@H]21)C3(C)C [DOCETAXEL ANHYDROUS] |  |  | inhibition in vivo at 5 mg/kg [30]: 87.4%; Activity_index [31]: 0.25
59.4 | 78.3 | 60.6 | > 100 | 78.3 | 53.9 | 51.5 | 62.5 | 55 | 85.4 | > 100 | 67.7 | 82.6 | CCCCCC[C@@H](C)C[C@@H](C)/C=C/C(N)=O | 13.5 | 64.5 | 
